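Exposure lasted 48 hours, with cells grown in 96-well plates and compounds tested at five concentrations. GI50 = concentration required for 50% inhibition of growth.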 The source made the active and inactive calls. Rule as the data show it: active = GI50 up to about 1.1 µM and inactive = higher.
How the values were obtained:
Assay in all cases: growth of human tumour cells (NCI), 48 h
786-0 = system: 786-0
A549 = system: A549
ACHN = system: ACHN
CAKI-1 = system: CAKI-1
CCRF-CEM = system: CCRF-CEM
COLO 205 = system: COLO 205
DLD-1 = system: DLD-1
DMS-114 = system: DMS-114
DMS-273 = system: DMS-273
EKVX = system: EKVX
HCC 2998 = system: HCC 2998
HCT-116 = system: HCT-116
HCT-15 = system: HCT-15
HL-60 = system: HL-60
HOP-62 = system: HOP-62
HOP-92 = system: HOP-92
HT-29 = system: HT-29
IGROV-1 = system: IGROV-1
K562 = system: K562
KM-20L2 = system: KM-20L2
KM12 = system: KM12
LOX IMVI = system: LOX IMVI
LXFL 529 = system: LXFL 529
M14 = system: M14
M19-MEL = system: M19-MEL
MOLT-4 = system: MOLT-4
NCI-H226 = system: NCI-H226
NCI-H23 = system: NCI-H23
NCI-H460 = system: NCI-H460
NCI-H522 = system: NCI-H522
OVCAR-4 = system: OVCAR-4
OVCAR-5 = system: OVCAR-5
OVCAR-8 = system: OVCAR-8
RPMI-8226 = system: RPMI-8226
RXF 393 = system: RXF 393
SF-268 = system: SF-268
SF-295 = system: SF-295
SF-539 = system: SF-539
SK-MEL-28 = system: SK-MEL-28
SK-MEL-2 = system: SK-MEL-2
SK-MEL-5 = system: SK-MEL-5
SK-OV-3 = system: SK-OV-3
SN12C = system: SN12C
SNB-19 = system: SNB-19
SNB-75 = system: SNB-75
SNB-78 = system: SNB-78
SR = system: SR
SW-620 = system: SW-620
TK-10 = system: TK-10
U-251 = system: U-251
UACC-257 = system: UACC-257
UACC-62 = system: UACC-62
UO-31 = system: UO-31
XF498 = system: XF498
A498 = system: A498
HOP-18 = system: HOP-18
Malme-3M = system: Malme-3M
OVCAR-3 = system: OVCAR-3

CC(C)C(/C=C/c1ccc(Br)cc1)=N\NC(N)=O
GI50 (786-0): > 100 µM (inactive)
GI50 (A549): > 100 µM (inactive)
GI50 (ACHN): > 100 µM (inactive)
GI50 (CAKI-1): > 100 µM (inactive)
GI50 (CCRF-CEM): > 100 µM (inactive)
GI50 (COLO 205): > 100 µM (inactive)
GI50 (DLD-1): > 100 µM (inactive)
GI50 (DMS-114): > 100 µM (inactive)
GI50 (DMS-273): > 100 µM (inactive)
GI50 (EKVX): > 100 µM (inactive)
GI50 (HCC 2998): 12.3 µM (inactive)
GI50 (HCT-116): > 100 µM (inactive)
GI50 (HCT-15): > 100 µM
GI50 (HL-60): > 100 µM (inactive)
GI50 (HOP-62): > 100 µM (inactive)
GI50 (HOP-92): > 100 µM (inactive)
GI50 (HT-29): > 100 µM (inactive)
GI50 (IGROV-1): > 100 µM (inactive)
GI50 (K562): > 100 µM (inactive)
GI50 (KM-20L2): > 100 µM (inactive)
GI50 (KM12): > 100 µM (inactive)
GI50 (LOX IMVI): > 100 µM (inactive)
GI50 (LXFL 529): 56.4 µM (inactive)
GI50 (M14): > 100 µM (inactive)
GI50 (M19-MEL): 12.2 µM (inactive)
GI50 (MOLT-4): > 100 µM (inactive)
GI50 (NCI-H226): > 100 µM (inactive)
GI50 (NCI-H23): > 100 µM (inactive)
GI50 (NCI-H460): > 100 µM (inactive)
GI50 (NCI-H522): 70.3 µM (inactive)
GI50 (OVCAR-4): > 100 µM (inactive)
GI50 (OVCAR-5): > 100 µM (inactive)
GI50 (OVCAR-8): > 100 µM (inactive)
GI50 (RPMI-8226): > 100 µM (inactive)
GI50 (RXF 393): > 100 µM (inactive)
GI50 (SF-268): > 100 µM (inactive)
GI50 (SF-295): > 100 µM (inactive)
GI50 (SF-539): > 100 µM (inactive)
GI50 (SK-MEL-28): > 100 µM (inactive)
GI50 (SK-MEL-2): > 100 µM (inactive)
GI50 (SK-MEL-5): > 100 µM (inactive)
GI50 (SK-OV-3): > 100 µM (inactive)
GI50 (SN12C): > 100 µM (inactive)
GI50 (SNB-19): > 100 µM (inactive)
GI50 (SNB-75): > 100 µM (inactive)
GI50 (SNB-78): > 100 µM (inactive)
GI50 (SR): > 100 µM (inactive)
GI50 (SW-620): > 100 µM (inactive)
GI50 (TK-10): > 100 µM (inactive)
GI50 (U-251): > 100 µM (inactive)
GI50 (UACC-257): > 100 µM (inactive)
GI50 (UACC-62): > 100 µM (inactive)
GI50 (UO-31): 18.2 µM (inactive)
GI50 (XF498): > 100 µM (inactive)

CCOc1ccccc1NC(=O)C(=O)CC(=O)c1sc(Nc2nnc(-c3ccc(Cl)c(Cl)c3)o2)nc1C
GI50 (786-0): > 100 µM (inactive)
GI50 (A498): > 100 µM (inactive)
GI50 (A549): > 100 µM (inactive)
GI50 (ACHN): > 100 µM (inactive)
GI50 (CAKI-1): > 100 µM (inactive)
GI50 (CCRF-CEM): 40.8 µM (inactive)
GI50 (COLO 205): > 100 µM (inactive)
GI50 (DLD-1): 88.7 µM (inactive)
GI50 (DMS-114): > 100 µM (inactive)
GI50 (DMS-273): 59 µM (inactive)
GI50 (EKVX): > 100 µM (inactive)
GI50 (HCC 2998): > 100 µM (inactive)
GI50 (HCT-116): > 100 µM (inactive)
GI50 (HCT-15): > 100 µM
GI50 (HL-60): > 100 µM (inactive)
GI50 (HOP-18): > 100 µM (inactive)
GI50 (HOP-62): > 100 µM (inactive)
GI50 (HOP-92): > 100 µM (inactive)
GI50 (HT-29): > 100 µM (inactive)
GI50 (IGROV-1): > 100 µM (inactive)
GI50 (K562): > 100 µM (inactive)
GI50 (KM-20L2): > 100 µM (inactive)
GI50 (KM12): > 100 µM (inactive)
GI50 (LOX IMVI): 31.8 µM (inactive)
GI50 (LXFL 529): > 100 µM (inactive)
GI50 (M14): > 100 µM (inactive)
GI50 (M19-MEL): > 100 µM (inactive)
GI50 (MOLT-4): > 100 µM (inactive)
GI50 (Malme-3M): > 100 µM (inactive)
GI50 (NCI-H226): > 100 µM (inactive)
GI50 (NCI-H23): > 100 µM (inactive)
GI50 (NCI-H460): 51.8 µM (inactive)
GI50 (OVCAR-3): 77.8 µM (inactive)
GI50 (OVCAR-4): > 100 µM (inactive)
GI50 (OVCAR-5): > 100 µM (inactive)
GI50 (OVCAR-8): > 100 µM (inactive)
GI50 (RPMI-8226): 64.3 µM (inactive)
GI50 (RXF 393): > 100 µM (inactive)
GI50 (SF-268): > 100 µM (inactive)
GI50 (SF-295): > 100 µM (inactive)
GI50 (SF-539): > 100 µM (inactive)
GI50 (SK-MEL-28): > 100 µM (inactive)
GI50 (SK-MEL-2): > 100 µM (inactive)
GI50 (SK-MEL-5): > 100 µM (inactive)
GI50 (SK-OV-3): > 100 µM (inactive)
GI50 (SN12C): > 100 µM (inactive)
GI50 (SNB-19): > 100 µM (inactive)
GI50 (SNB-75): > 100 µM (inactive)
GI50 (SNB-78): > 100 µM (inactive)
GI50 (SR): > 100 µM (inactive)
GI50 (SW-620): 33.5 µM (inactive)
GI50 (TK-10): > 100 µM (inactive)
GI50 (U-251): 18.8 µM (inactive)
GI50 (UACC-257): 98.9 µM (inactive)
GI50 (UACC-62): > 100 µM (inactive)
GI50 (UO-31): > 100 µM (inactive)

O=C1CCCCC1CN1CCCC1 (stereo not drawn)
GI50 (786-0): > 100 µM (inactive)
GI50 (A498): > 100 µM (inactive)
GI50 (A549): > 100 µM (inactive)
GI50 (ACHN): > 100 µM (inactive)
GI50 (CCRF-CEM): 65.6 µM (inactive)
GI50 (COLO 205): > 100 µM (inactive)
GI50 (DLD-1): > 100 µM (inactive)
GI50 (DMS-114): > 100 µM (inactive)
GI50 (DMS-273): > 100 µM (inactive)
GI50 (EKVX): > 100 µM (inactive)
GI50 (HCC 2998): > 100 µM (inactive)
GI50 (HCT-116): > 100 µM (inactive)
GI50 (HCT-15): > 100 µM
GI50 (HL-60): > 10 µM (inactive)
GI50 (HOP-62): > 100 µM (inactive)
GI50 (HT-29): > 100 µM (inactive)
GI50 (IGROV-1): > 100 µM (inactive)
GI50 (K562): > 100 µM (inactive)
GI50 (KM-20L2): > 100 µM (inactive)
GI50 (KM12): > 100 µM (inactive)
GI50 (LOX IMVI): > 100 µM (inactive)
GI50 (LXFL 529): > 100 µM (inactive)
GI50 (M14): > 100 µM (inactive)
GI50 (M19-MEL): > 100 µM (inactive)
GI50 (MOLT-4): > 100 µM (inactive)
GI50 (Malme-3M): > 10 µM (inactive)
GI50 (NCI-H226): > 100 µM (inactive)
GI50 (NCI-H23): > 100 µM (inactive)
GI50 (NCI-H460): > 100 µM (inactive)
GI50 (NCI-H522): 0.178 µM (active)
GI50 (OVCAR-3): > 100 µM (inactive)
GI50 (OVCAR-4): > 100 µM (inactive)
GI50 (OVCAR-5): > 100 µM (inactive)
GI50 (OVCAR-8): > 100 µM (inactive)
GI50 (RPMI-8226): 84.3 µM (inactive)
GI50 (SF-268): > 100 µM (inactive)
GI50 (SF-295): > 100 µM (inactive)
GI50 (SK-MEL-28): > 100 µM (inactive)
GI50 (SK-MEL-2): > 100 µM (inactive)
GI50 (SK-MEL-5): > 100 µM (inactive)
GI50 (SK-OV-3): > 100 µM (inactive)
GI50 (SN12C): > 100 µM (inactive)
GI50 (SNB-75): > 100 µM (inactive)
GI50 (SNB-78): > 100 µM (inactive)
GI50 (SR): 38.7 µM (inactive)
GI50 (SW-620): > 100 µM (inactive)
GI50 (TK-10): > 100 µM (inactive)
GI50 (U-251): > 100 µM (inactive)
GI50 (UACC-257): > 100 µM (inactive)
GI50 (XF498): > 100 µM (inactive)

Cc1[nH]c(=O)nc(N/N=C/c2ccc(O)cc2)c1C(=O)Nc1ccc(O)cc1
GI50 (786-0): > 100 µM (inactive)
GI50 (A498): > 100 µM (inactive)
GI50 (CAKI-1): > 100 µM (inactive)
GI50 (CCRF-CEM): > 100 µM (inactive)
GI50 (COLO 205): > 100 µM (inactive)
GI50 (DLD-1): > 100 µM (inactive)
GI50 (DMS-114): > 100 µM (inactive)
GI50 (DMS-273): > 100 µM (inactive)
GI50 (HCC 2998): > 100 µM (inactive)
GI50 (HCT-116): > 100 µM (inactive)
GI50 (HL-60): > 100 µM (inactive)
GI50 (HOP-62): > 100 µM (inactive)
GI50 (HOP-92): > 100 µM (inactive)
GI50 (IGROV-1): > 100 µM (inactive)
GI50 (K562): > 100 µM (inactive)
GI50 (LXFL 529): > 100 µM (inactive)
GI50 (M14): > 100 µM (inactive)
GI50 (M19-MEL): > 100 µM (inactive)
GI50 (MOLT-4): > 100 µM (inactive)
GI50 (Malme-3M): > 100 µM (inactive)
GI50 (NCI-H226): > 100 µM (inactive)
GI50 (NCI-H23): > 100 µM (inactive)
GI50 (NCI-H460): > 100 µM (inactive)
GI50 (NCI-H522): > 100 µM (inactive)
GI50 (OVCAR-4): > 100 µM (inactive)
GI50 (RPMI-8226): > 100 µM (inactive)
GI50 (SF-268): > 100 µM (inactive)
GI50 (SF-539): > 100 µM (inactive)
GI50 (SK-MEL-28): > 100 µM (inactive)
GI50 (SK-MEL-2): > 100 µM (inactive)
GI50 (SK-OV-3): > 100 µM (inactive)
GI50 (SN12C): > 100 µM (inactive)
GI50 (SNB-75): > 100 µM (inactive)
GI50 (SNB-78): 72.8 µM (inactive)
GI50 (SR): > 100 µM (inactive)
GI50 (UACC-62): > 100 µM (inactive)
GI50 (UO-31): > 100 µM (inactive)
GI50 (XF498): > 100 µM (inactive)

Source: ChEMBL document CHEMBL1201862, “PubChem BioAssay data set” (2004)
